Test results: ChEMBL document CHEMBL4433259, “Rifamycin derivatives active against pathogenic rapidly-growing mycobacteria” (Bioorg Med Chem Lett, 2019)
Activity calls are given as the source filed them. The rule behind the calls is not given here.

How the values were obtained:
[1] = Drug metabolism in Mycobacterium abscessus ATCC 19977 assessed as C23 ribosylated derivative formation by LC/MS analysis relative to control; format: ADME; conditions: Mycobacteroides abscessus
[2] = system: Mycobacteroides abscessus; test: Antimycobacterial activity against Mycobacterium abscessus ATCC 19977 assessed as inhibition zone diameter at <3 ng after 3 days by disc diffusion method; format: functional, organism-based
[3] = system: Mycobacteroides abscessus; test: Antimycobacterial activity against Mycobacterium abscessus FM0058 clinical isolate assessed as inhibition zone diameter at 400 ng after 3 days by disc diffusion method; format: functional
[4] = Drug metabolism in Mycobacterium abscessus ATCC 19977 assessed as adenine ribosylated diphosphate derivative formation by LC/MS analysis; format: ADME; conditions: Mycobacteroides abscessus
[5] = system: Mycobacteroides abscessus; test: Antimycobacterial activity against Mycobacterium abscessus FM0058 clinical isolate assessed as inhibition zone diameter at 6.25 ng after 3 days by disc diffusion method; format: functional
[6] = system: Mycobacteroides abscessus; test: Antimycobacterial activity against Mycobacterium abscessus FM0058 clinical isolate assessed as inhibition zone diameter at 50 ng after 3 days by disc diffusion method; format: functional
[7] = system: Mycobacteroides abscessus; test: Antimycobacterial activity against Mycobacterium abscessus FM0058 clinical isolate assessed as inhibition zone diameter at 100 ng after 3 days by disc diffusion method; format: functional
[8] = system: Mycolicibacterium smegmatis; test: Antimycobacterial activity against Mycobacterium smegmatis assessed as reduction in microbial growth by CLSI method; format: functional
[9] = system: Mycobacteroides abscessus; test: Antimycobacterial activity against Mycobacterium abscessus FM0058 clinical isolate assessed as inhibition zone diameter at <3 ng after 3 days by disc diffusion method; format: functional, organism-based
[10] = system: Mycobacteroides abscessus; test: Antimycobacterial activity against Mycobacterium abscessus ATCC 19977 assessed as inhibition zone diameter at 1.56 ng after 3 days by disc diffusion method; format: functional
[11] = system: Mycobacteroides chelonae; test: Antimycobacterial activity against Mycobacterium chelonae assessed as reduction in microbial growth by CLSI method; format: functional
[12] = system: Mycobacteroides abscessus; test: Antimycobacterial activity against Mycobacterium abscessus FM0058 clinical isolate assessed as inhibition zone diameter at 3.125 ng after 3 days by disc diffusion method; format: functional
[13] = system: Mycobacteroides abscessus; test: Antimycobacterial activity against Mycobacterium abscessus ATCC 19977 assessed as inhibition zone diameter at 400 ng after 3 days by disc diffusion method; format: functional
[14] = system: Mycobacteroides abscessus; test: Antimycobacterial activity against Mycobacterium abscessus FM0058 clinical isolate assessed as inhibition zone diameter at 25 ng after 3 days by disc diffusion method; format: functional
[15] = system: Mycobacteroides abscessus; test: Antimycobacterial activity against Mycobacterium abscessus ATCC 19977 assessed as inhibition zone diameter at 800 ng after 3 days by disc diffusion method; format: functional
[16] = system: Mycobacteroides abscessus; test: Antimycobacterial activity against Mycobacterium abscessus ATCC 19977 assessed as inhibition zone diameter at 50 ng after 3 days by disc diffusion method; format: functional
[17] = Antimycobacterial activity against Mycobacterium abscessus subsp. massiliense assessed as reduction in microbial growth by CLSI method; format: functional; conditions: Mycobacteroides abscessus
[18] = system: Mycobacteroides abscessus; test: Antimycobacterial activity against Mycobacterium abscessus ATCC 19977 assessed as inhibition zone diameter at 3.125 ng after 3 days by disc diffusion method; format: functional
[19] = system: Mycobacteroides abscessus; test: Antimycobacterial activity against Mycobacterium abscessus FM0058 clinical isolate assessed as inhibition zone diameter at 12.5 ng after 3 days by disc diffusion method; format: functional
[20] = system: Mycobacteroides abscessus; test: Antimycobacterial activity against Mycobacterium abscessus ATCC 19977 assessed as inhibition zone diameter at 12.5 ng after 3 days by disc diffusion method; format: functional
[21] = system: Mycobacteroides abscessus; test: Antimycobacterial activity against Mycobacterium abscessus ATCC 19977 assessed as inhibition zone diameter at 200 ng after 3 days by disc diffusion method; format: functional
[22] = Antimycobacterial activity against Mycobacterium abscessus subsp. abscessus assessed as reduction in microbial growth by CLSI method; format: functional; conditions: Mycobacteroides abscessus
[23] = system: Mycobacteroides abscessus; test: Antimycobacterial activity against Mycobacterium abscessus ATCC 19977 assessed as inhibition zone diameter at 100 ng after 3 days by disc diffusion method; format: functional
[24] = system: Mycobacteroides abscessus; test: Antimycobacterial activity against Mycobacterium abscessus FM0058 clinical isolate assessed as inhibition zone diameter at 200 ng after 3 days by disc diffusion method; format: functional
[25] = system: Mycobacteroides abscessus; test: Antimycobacterial activity against Mycobacterium abscessus FM0058 clinical isolate assessed as inhibition zone diameter at 800 ng after 3 days by disc diffusion method; format: functional
[26] = system: Mycobacteroides abscessus; test: Antimycobacterial activity against Mycobacterium abscessus ATCC 19977 assessed as inhibition zone diameter at 6.25 ng after 3 days by disc diffusion method; format: functional
[27] = system: Mycobacteroides abscessus; test: Antimycobacterial activity against Mycobacterium abscessus FM0058 clinical isolate assessed as inhibition zone diameter at 1.56 ng after 3 days by disc diffusion method; format: functional
[28] = Antimycobacterial activity against Mycobacterium abscessus subsp. bolletii assessed as reduction in microbial growth by CLSI method; format: functional; conditions: Mycobacteroides abscessus
[29] = system: Mycobacteroides abscessus; test: Antimycobacterial activity against Mycobacterium abscessus ATCC 19977 assessed as inhibition zone diameter at 25 ng after 3 days by disc diffusion method; format: functional
[30] = system: Mycolicibacterium fortuitum; test: Antimycobacterial activity against Mycobacterium fortuitum assessed as reduction in microbial growth by CLSI method; format: functional

Compound: CO[C@H]1/C=C/O[C@@]2(C)Oc3c(C)c(O)c4c(c3C2=O)C(=O)C(N2CCOCC2)=C(NC(=O)/C(C)=C\C=C\[C@H](C)[C@H](O)[C@@H](C)[C@@H](O)[C@@H](C)[C@H](OC(=O)NC2CCN(Cc3ccccc3)CC2)[C@@H]1C)C4=O
- Drug metabolism [1]: Metabolite_Notdetected
- diameter of the inhibition zone (DIZ) [2]: inactive
- diameter of the inhibition zone (DIZ) [3]: >30 mm
- Drug metabolism [4]: Metabolite_Notdetected
- diameter of the inhibition zone (DIZ) [5]: 11 mm
- diameter of the inhibition zone (DIZ) [6]: 22 mm
- diameter of the inhibition zone (DIZ) [7]: 24 mm
- MIC [8]: 0.12 µg/mL
- diameter of the inhibition zone (DIZ) [9]: inactive
- diameter of the inhibition zone (DIZ) [10]: 0 mm
- MIC [11]: < 0.03 µg/mL
- diameter of the inhibition zone (DIZ) [12]: 0 mm
- diameter of the inhibition zone (DIZ) [13]: >30 mm
- diameter of the inhibition zone (DIZ) [14]: 20 mm
- diameter of the inhibition zone (DIZ) [15]: >30 mm
- diameter of the inhibition zone (DIZ) [16]: 21 mm
- MIC [17]: 0.25 µg/mL
- diameter of the inhibition zone (DIZ) [18]: 0 mm
- diameter of the inhibition zone (DIZ) [19]: 16 mm
- diameter of the inhibition zone (DIZ) [20]: 13 mm
- diameter of the inhibition zone (DIZ) [21]: >30 mm
- MIC [22]: < 0.03 µg/mL
- diameter of the inhibition zone (DIZ) [23]: 24 mm
- diameter of the inhibition zone (DIZ) [24]: 29 mm
- diameter of the inhibition zone (DIZ) [25]: >30 mm
- diameter of the inhibition zone (DIZ) [26]: 0 mm
- diameter of the inhibition zone (DIZ) [27]: 0 mm
- MIC [28]: 0.0625 µg/mL
- diameter of the inhibition zone (DIZ) [29]: 16 mm
- MIC [30]: < 0.03 µg/mL
